Data taken from patent publication US20260250257A1, “ANTIBACTERIAL AND SYNERGISTIC ACTIVE COMPOUND AND USE THEREOF” (EAST CHINA UNIVERSITY OF SCIENCE AND TECHNOLOGY, priority 2023, published 2026).

System: ATCC19606 strain (Acinetobacter baumannii)
Assay: Broth microdilution, antibacterial activity of the compound used alone
Type: cell-based
Details: not given
Text: (§1) The broth microdilution method was used to test the antibacterial effects of the compounds of the present invention against various Gram-negative bacterial strains when used alone.

SMILES | Antibacterial activity of the compound of Formula I, ATCC19606
CN(C)c1ccc(-c2nc(N=C(N)N)[nH]c2Cl)c(-c2ccco2)c1 [Compound I-78] | 256 µg/mL
NC(N)=Nc1nc(-c2cccc(C(F)(F)F)c2)c[nH]1 [Compound I-42] | 256 µg/mL
Cc1sc(N=C2NCCCN2)nc1-c1ccccc1Oc1ccccc1Cl [Compound I-145] | 256 µg/mL
Cc1[nH]c(N=C2NCCCN2)nc1-c1cc(C(C)(C)C)cc(C(C)(C)C)c1 [Compound I-162] | 256 µg/mL
Cc1ccccc1Oc1cccc(-c2coc(N=C3NCCCN3)n2)c1 [Compound I-152] | 256 µg/mL
Clc1ccc(Oc2cc(Cl)ccc2-c2c[nH]c(N=C3NCCCN3)n2)c(Cl)c1 [Compound I-150] | 256 µg/mL
NC(N)=Nc1nc(-c2ccc(I)cc2)cs1 [Compound I-33] | 256 µg/mL
CNS(=O)(=O)c1cc(-c2c[se]c(N=C3NCCCN3)n2)ccc1C [Compound I-171] | 256 µg/mL
CC(C)c1ccc(-c2c[nH]c(N=C3NCCCN3)n2)cc1 [Compound I-166] | 256 µg/mL

System: ATCC25922 strain (Escherichia coli)
Assay: as above
Type: cell-based
Details: not given
Text: as §1

SMILES | Antibacterial activity of the compound of Formula I, ATCC25922
CN(C)c1ccc(-c2nc(N=C(N)N)[nH]c2Cl)c(-c2ccco2)c1 [Compound I-78] | 256 µg/mL
NC(N)=Nc1nc(-c2cccc(C(F)(F)F)c2)c[nH]1 [Compound I-42] | 256 µg/mL
Cc1sc(N=C2NCCCN2)nc1-c1ccccc1Oc1ccccc1Cl [Compound I-145] | 256 µg/mL
Cc1[nH]c(N=C2NCCCN2)nc1-c1cc(C(C)(C)C)cc(C(C)(C)C)c1 [Compound I-162] | 256 µg/mL
Cc1ccccc1Oc1cccc(-c2coc(N=C3NCCCN3)n2)c1 [Compound I-152] | 256 µg/mL
Clc1ccc(Oc2cc(Cl)ccc2-c2c[nH]c(N=C3NCCCN3)n2)c(Cl)c1 [Compound I-150] | 256 µg/mL
NC(N)=Nc1nc(-c2ccc(I)cc2)cs1 [Compound I-33] | 256 µg/mL
CNS(=O)(=O)c1cc(-c2c[se]c(N=C3NCCCN3)n2)ccc1C [Compound I-171] | 256 µg/mL
CC(C)c1ccc(-c2c[nH]c(N=C3NCCCN3)n2)cc1 [Compound I-166] | 256 µg/mL

System: ATCC13883 strain (Klebsiella pneumoniae)
Assay: as above
Type: cell-based
Details: not given
Text: as §1

SMILES | Antibacterial activity of the compound of Formula I, ATCC13883
CN(C)c1ccc(-c2nc(N=C(N)N)[nH]c2Cl)c(-c2ccco2)c1 [Compound I-78] | 256 µg/mL
NC(N)=Nc1nc(-c2cccc(C(F)(F)F)c2)c[nH]1 [Compound I-42] | 256 µg/mL
Cc1sc(N=C2NCCCN2)nc1-c1ccccc1Oc1ccccc1Cl [Compound I-145] | 256 µg/mL
Cc1[nH]c(N=C2NCCCN2)nc1-c1cc(C(C)(C)C)cc(C(C)(C)C)c1 [Compound I-162] | 256 µg/mL
Cc1ccccc1Oc1cccc(-c2coc(N=C3NCCCN3)n2)c1 [Compound I-152] | 256 µg/mL
Clc1ccc(Oc2cc(Cl)ccc2-c2c[nH]c(N=C3NCCCN3)n2)c(Cl)c1 [Compound I-150] | 256 µg/mL
NC(N)=Nc1nc(-c2ccc(I)cc2)cs1 [Compound I-33] | 256 µg/mL
CNS(=O)(=O)c1cc(-c2c[se]c(N=C3NCCCN3)n2)ccc1C [Compound I-171] | 256 µg/mL
CC(C)c1ccc(-c2c[nH]c(N=C3NCCCN3)n2)cc1 [Compound I-166] | 256 µg/mL

System: ATCC9027 strain (Pseudomonas aeruginosa)
Assay: as above
Type: cell-based
Details: not given
Text: as §1

SMILES | Antibacterial activity of the compound of Formula I, ATCC9027
CN(C)c1ccc(-c2nc(N=C(N)N)[nH]c2Cl)c(-c2ccco2)c1 [Compound I-78] | 128 µg/mL
NC(N)=Nc1nc(-c2cccc(C(F)(F)F)c2)c[nH]1 [Compound I-42] | 256 µg/mL
Cc1sc(N=C2NCCCN2)nc1-c1ccccc1Oc1ccccc1Cl [Compound I-145] | 256 µg/mL
Cc1[nH]c(N=C2NCCCN2)nc1-c1cc(C(C)(C)C)cc(C(C)(C)C)c1 [Compound I-162] | 256 µg/mL
Cc1ccccc1Oc1cccc(-c2coc(N=C3NCCCN3)n2)c1 [Compound I-152] | 256 µg/mL
Clc1ccc(Oc2cc(Cl)ccc2-c2c[nH]c(N=C3NCCCN3)n2)c(Cl)c1 [Compound I-150] | 256 µg/mL
NC(N)=Nc1nc(-c2ccc(I)cc2)cs1 [Compound I-33] | 256 µg/mL
CNS(=O)(=O)c1cc(-c2c[se]c(N=C3NCCCN3)n2)ccc1C [Compound I-171] | 256 µg/mL
CC(C)c1ccc(-c2c[nH]c(N=C3NCCCN3)n2)cc1 [Compound I-166] | 256 µg/mL

System: ATCC19606 strain (Acinetobacter baumannii)
Assay: Checkerboard antibacterial synergistic activity test with polymyxin E (FIC)
Type: cell-based
Set-up: key: FIC≤0.5 synergy; 0.5–1 additive; 1–2 indifferent; ≥2 antagonism
Details: combined with polymyxin E
Method in brief: (§2)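 Interaction is reported as the fractional inhibitory concentration, read after 16 h of growth at 37° C. in Mueller-Hinton broth. Each well paired one level of polymyxin E (prepared at 16 to 0.015 μg/ml) with one of the test agent (prepared at 256 to 4 μg/ml) before bacteria were added.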

SMILES | Synergistic activity (FIC value) ATCC19606
CN(C)c1ccc(-c2nc(N=C(N)N)[nH]c2Cl)c(-c2ccco2)c1 [Compound I-78] | 0.75
NC(N)=Nc1nc(-c2cccc(C(F)(F)F)c2)c[nH]1 [Compound I-42] | 1.25
Cc1sc(N=C2NCCCN2)nc1-c1ccccc1Oc1ccccc1Cl [Compound I-145] | 0.04
Cc1[nH]c(N=C2NCCCN2)nc1-c1cc(C(C)(C)C)cc(C(C)(C)C)c1 [Compound I-162] | 0.03
Cc1ccccc1Oc1cccc(-c2coc(N=C3NCCCN3)n2)c1 [Compound I-152] | 0.38
Clc1ccc(Oc2cc(Cl)ccc2-c2c[nH]c(N=C3NCCCN3)n2)c(Cl)c1 [Compound I-150] | 0.31
NC(N)=Nc1nc(-c2ccc(I)cc2)cs1 [Compound I-33] | 0.28
CNS(=O)(=O)c1cc(-c2c[se]c(N=C3NCCCN3)n2)ccc1C [Compound I-171] | 0.75
CC(C)c1ccc(-c2c[nH]c(N=C3NCCCN3)n2)cc1 [Compound I-166] | 1.25

System: ATCC25922 strain (Escherichia coli)
Assay: as above
Type: cell-based
Set-up: key: FIC≤0.5 synergy; 0.5–1 additive; 1–2 indifferent; ≥2 antagonism
Details: combined with polymyxin E
Method in brief: as §2

SMILES | Synergistic activity (FIC value) ATCC25922
CN(C)c1ccc(-c2nc(N=C(N)N)[nH]c2Cl)c(-c2ccco2)c1 [Compound I-78] | 0.5
NC(N)=Nc1nc(-c2cccc(C(F)(F)F)c2)c[nH]1 [Compound I-42] | 0.53
Cc1sc(N=C2NCCCN2)nc1-c1ccccc1Oc1ccccc1Cl [Compound I-145] | 0.2
Cc1[nH]c(N=C2NCCCN2)nc1-c1cc(C(C)(C)C)cc(C(C)(C)C)c1 [Compound I-162] | 0.18
Cc1ccccc1Oc1cccc(-c2coc(N=C3NCCCN3)n2)c1 [Compound I-152] | 0.04
Clc1ccc(Oc2cc(Cl)ccc2-c2c[nH]c(N=C3NCCCN3)n2)c(Cl)c1 [Compound I-150] | 0.14
NC(N)=Nc1nc(-c2ccc(I)cc2)cs1 [Compound I-33] | 0.5
CNS(=O)(=O)c1cc(-c2c[se]c(N=C3NCCCN3)n2)ccc1C [Compound I-171] | 0.5
CC(C)c1ccc(-c2c[nH]c(N=C3NCCCN3)n2)cc1 [Compound I-166] | 0.5

System: ATCC13883 strain (Klebsiella pneumoniae)
Assay: as above
Type: cell-based
Set-up: key: FIC≤0.5 synergy; 0.5–1 additive; 1–2 indifferent; ≥2 antagonism
Details: combined with polymyxin E
Method in brief: as §2

SMILES | Synergistic activity (FIC value) ATCC13883
CN(C)c1ccc(-c2nc(N=C(N)N)[nH]c2Cl)c(-c2ccco2)c1 [Compound I-78] | 0.38
NC(N)=Nc1nc(-c2cccc(C(F)(F)F)c2)c[nH]1 [Compound I-42] | 1.25
Cc1sc(N=C2NCCCN2)nc1-c1ccccc1Oc1ccccc1Cl [Compound I-145] | 0.13
Cc1[nH]c(N=C2NCCCN2)nc1-c1cc(C(C)(C)C)cc(C(C)(C)C)c1 [Compound I-162] | 0.16
Cc1ccccc1Oc1cccc(-c2coc(N=C3NCCCN3)n2)c1 [Compound I-152] | 0.19
Clc1ccc(Oc2cc(Cl)ccc2-c2c[nH]c(N=C3NCCCN3)n2)c(Cl)c1 [Compound I-150] | 0.09
NC(N)=Nc1nc(-c2ccc(I)cc2)cs1 [Compound I-33] | 0.25
CNS(=O)(=O)c1cc(-c2c[se]c(N=C3NCCCN3)n2)ccc1C [Compound I-171] | 0.63
CC(C)c1ccc(-c2c[nH]c(N=C3NCCCN3)n2)cc1 [Compound I-166] | 1.25

System: ATCC9027 strain (Pseudomonas aeruginosa)
Assay: as above
Type: cell-based
Set-up: key: FIC≤0.5 synergy; 0.5–1 additive; 1–2 indifferent; ≥2 antagonism
Details: combined with polymyxin E
Method in brief: as §2

SMILES | Synergistic activity (FIC value) ATCC9027
CN(C)c1ccc(-c2nc(N=C(N)N)[nH]c2Cl)c(-c2ccco2)c1 [Compound I-78] | 0.63
NC(N)=Nc1nc(-c2cccc(C(F)(F)F)c2)c[nH]1 [Compound I-42] | 1.25
Cc1sc(N=C2NCCCN2)nc1-c1ccccc1Oc1ccccc1Cl [Compound I-145] | 0.28
Cc1[nH]c(N=C2NCCCN2)nc1-c1cc(C(C)(C)C)cc(C(C)(C)C)c1 [Compound I-162] | 0.28
Cc1ccccc1Oc1cccc(-c2coc(N=C3NCCCN3)n2)c1 [Compound I-152] | 0.04
Clc1ccc(Oc2cc(Cl)ccc2-c2c[nH]c(N=C3NCCCN3)n2)c(Cl)c1 [Compound I-150] | 0.06
NC(N)=Nc1nc(-c2ccc(I)cc2)cs1 [Compound I-33] | 0.63
CNS(=O)(=O)c1cc(-c2c[se]c(N=C3NCCCN3)n2)ccc1C [Compound I-171] | 0.56
CC(C)c1ccc(-c2c[nH]c(N=C3NCCCN3)n2)cc1 [Compound I-166] | 1.25
